# Target: JAK1 (Homo sapiens (Human), UniProt P23458)
# Assay: Jak Biochemical HTRF Assay, JAK1
# Details: HTRF biochemical assay, GST-tagged catalytic domain; top concentration tested […]; read-out: JAK1 IC50
# Description: (§1) Jak Biochemical HTRF Assay Protocol
# (§2) Subsequent reagent additions employed an Agilent Bravo.
# JAK1, sequence (P23458 875-1153): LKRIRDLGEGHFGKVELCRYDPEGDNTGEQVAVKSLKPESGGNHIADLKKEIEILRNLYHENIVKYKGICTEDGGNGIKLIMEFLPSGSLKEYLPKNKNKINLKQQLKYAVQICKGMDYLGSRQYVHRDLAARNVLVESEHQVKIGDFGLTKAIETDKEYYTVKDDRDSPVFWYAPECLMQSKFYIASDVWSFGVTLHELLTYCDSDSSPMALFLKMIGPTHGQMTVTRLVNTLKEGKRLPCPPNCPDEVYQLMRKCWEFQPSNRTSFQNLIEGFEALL
row,Compound,IC50
1,"CC(C)(C)OC(=O)N1CCC(CC#N)(n2cc(C(N)=O)c(Nc3cccc(-c4ccc(O)cc4)c3)n2)CC1 [Example 15-5, tert-butyl 4-{4-carbamoyl-3-[(4′-hydroxybiphenyl-3-yl)amino]-1H-pyrazol-1-yl}-4-(cyanomethyl)piperidine-1-carboxylate]",14 nM
2,"N#CCC1(n2cc(C(N)=O)c(Nc3ccccc3)n2)CCN(S(=O)(=O)Cc2ccccc2)CC1 [Example 37-8, 1-[1-(benzylsulfonyl)-4-(cyanomethyl)piperidin-4-yl]-3-(phenylamino)-1H-pyrazole-4-carboxamide]",15 nM
3,"CN1CCC(COC(=O)N2CCC(CC#N)(n3cc(C(N)=O)c(Nc4ccccc4)n3)CC2)CC1 [Example 30-44, (1-methylpiperidin-4-yl)methyl 4-[4-carbamoyl-3-(phenylamino)-1H-pyrazol-1-yl]-4-(cyanomethyl)piperidine-1-carboxylate]",11 nM
4,"N#CCC1(n2cc(C(N)=O)c(Nc3ccc(F)cc3)n2)CCC(NCC(F)(F)F)CC1 (stereo not drawn) [Example 40-98, Cis or trans 1-{1-(cyanomethyl)-4-[(2,2,2-trifluoroethyl)amino]cyclohexyl}-3-[(4-fluorophenyl)amino]-1H-pyrazole-4-carboxamide]",1 nM
5,"COc1cccc(Nc2nn(C3(CC#N)CCN(C(=O)OC(C)(C)C)CC3)cc2C(N)=O)n1 [Example 13-9, tert-butyl 4-(4-carbamoyl-3-(6-methoxypyridin-2-ylamino)-1H-pyrazol-1-yl)-4-(cyanomethyl)piperidine-1-carboxylate]",10 nM
6,"N#CCC1(n2cc(C(N)=O)c(Nc3ccnc(F)c3)n2)CCN(Cc2ccc(O)nc2)CC1 [Example 22-68, 1-{4-(cyanomethyl)-1-[(6-hydroxypyridin-3-yl)methyl]piperidin-4-yl}-3-[(2-fluoropyridin-4-yl)amino]-1H-pyrazole-4-carboxamide]",0.1 nM

# Target: JAK2 (Homo sapiens (Human), UniProt O60674)
# Sequence (O60674 849-1124): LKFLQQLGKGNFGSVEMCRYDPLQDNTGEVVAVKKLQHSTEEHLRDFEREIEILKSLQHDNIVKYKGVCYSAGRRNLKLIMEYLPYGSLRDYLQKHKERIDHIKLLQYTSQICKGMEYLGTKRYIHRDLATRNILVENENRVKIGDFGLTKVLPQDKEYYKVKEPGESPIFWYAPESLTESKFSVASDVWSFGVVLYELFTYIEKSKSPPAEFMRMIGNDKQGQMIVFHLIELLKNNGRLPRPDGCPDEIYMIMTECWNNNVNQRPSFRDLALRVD
# Assay: Jak Biochemical HTRF Assay, JAK2
# Details: not given
# Description: as §1, §2
row,Compound,IC50
1,"N#CCC1(n2cc(C(N)=O)c(Nc3ccc(S(=O)(=O)C(F)F)cc3)n2)CCC(Nc2cccnc2)CC1 (stereo not drawn) [Example 40-9, Cis or trans 1-[1-(cyanomethyl)-4-(pyridin-3-ylamino)cyclohexyl]-3-({4-[(difluoromethyl)sulfonyl]phenyl}amino)-1H-pyrazole-4-carboxamide]",352 nM
2,"N#CCC1(n2cc(C(N)=O)c(Nc3ccc(S(=O)(=O)C(F)F)cc3)n2)CCC(Nc2ccc(O)cc2)CC1 (stereo not drawn) [Example 40-7, Cis or trans 1-{1-(cyanomethyl)-4-[(4-hydroxyphenyl)amino]cyclohexyl}-3-({4-[(difluoromethyl)sulfonyl]phenyl}amino)-1H-pyrazole-4-carboxamide]",36 nM
3,"COC(=O)C(C)(C)OC(=O)N1CCC(CC#N)(n2cc(C(N)=O)c(Nc3ccc(F)cc3)n2)CC1 [Example 29-A, 1-Methoxy-2-methyl-1-oxopropan-2-yl4-{4-carbamoyl-3-[(4-fluorophenyl)amino]-1H-pyrazol-1-yl}-4-(cyanomethyl)piperidine-1-carboxylate]",40 nM
4,"N#CC[C@]1(n2cc(C(N)=O)c(Nc3ccccc3)n2)CC[C@@H](C(=O)NCC(F)(F)F)CC1 [Example 45-1, cis or trans 1-{1-(cyanomethyl)-4-[(2,2,2-trifluoroethyl)carbamoyl]cyclohexyl}-3-(phenylamino)-1H-pyrazole-4-carboxamide]",301 nM
5,"N#CCC1(n2cc(C(N)=O)c(Nc3ccc(S(=O)(=O)C(F)F)cc3)n2)CCC(Nc2cccc(O)c2)CC1 (stereo not drawn) [Example 40-14, Cis or trans 1-{1-(cyanomethyl)-4-[(3-hydroxyphenyl)amino]cyclohexyl}-3-({4-[(difluoromethyl)sulfonyl]phenyl}amino)-1H-pyrazole-4-carboxamide]",65 nM
6,"N#CCC1(n2cc(C(N)=O)c(Nc3ccc(F)cc3)n2)CCC(NC2CCOCC2)CC1 (stereo not drawn) [Example 40-65, Cis or trans 1-[1-(cyanomethyl)-4-(tetrahydro-2H-pyran-4-ylamino)cyclohexyl]-3-[(4-fluorophenyl)amino]-1H-pyrazole-4-carboxamide]",129 nM
7,"N#CCC1(n2cc(C(N)=O)c(Nc3ccnc(F)c3)n2)CCC(NC2CCOCC2)CC1 (stereo not drawn) [Example 40-38, Cis or trans 1-[1-(cyanomethyl)-4-(tetrahydro-2H-pyran-4-ylamino)cyclohexyl]-3-[(2-fluoropyridin-4-yl)amino]-1H-pyrazole-4-carboxamide]",103 nM
8,"N#CCC1(n2cc(C(N)=O)c(Nc3ccc(S(=O)(=O)C(F)F)cc3)n2)CCC(Nc2ccccc2O)CC1 (stereo not drawn) [Example 40-32, Cis or trans 1-{1-(cyanomethyl)-4-[(2-hydroxyphenyl)amino]cyclohexyl}-3-({4-[(difluoromethyl)sulfonyl]phenyl}amino)-1H-pyrazole-4-carboxamide]",177 nM

# Same assay, conditions: HTRF biochemical assay, GST-tagged catalytic domain; top concentration tested […]
row,Compound,IC50
1,"CC(C)(C)OC(=O)N1CCC(CC#N)(n2cc(C(N)=O)c(Nc3cccc(-c4ccc(O)cc4)c3)n2)CC1 [Example 15-5, tert-butyl 4-{4-carbamoyl-3-[(4′-hydroxybiphenyl-3-yl)amino]-1H-pyrazol-1-yl}-4-(cyanomethyl)piperidine-1-carboxylate]",293 nM
2,"N#CCC1(n2cc(C(N)=O)c(Nc3ccccc3)n2)CCN(S(=O)(=O)Cc2ccccc2)CC1 [Example 37-8, 1-[1-(benzylsulfonyl)-4-(cyanomethyl)piperidin-4-yl]-3-(phenylamino)-1H-pyrazole-4-carboxamide]",35 nM
3,"CN1CCC(COC(=O)N2CCC(CC#N)(n3cc(C(N)=O)c(Nc4ccccc4)n3)CC2)CC1 [Example 30-44, (1-methylpiperidin-4-yl)methyl 4-[4-carbamoyl-3-(phenylamino)-1H-pyrazol-1-yl]-4-(cyanomethyl)piperidine-1-carboxylate]",318 nM
4,"C[C@H]1CN(C(=O)OC(C)(C)C)CC[C@]1(CC#N)n1cc(C(N)=O)c(Nc2ccccc2)n1 (racemic) [Example 2-9, tert-Butyl (3S,4R and 3R,4S)-4-[4-carbamoyl-3-(phenylamino)-1H-pyrazol-1-yl]-4-(cyanomethyl)-3-methylpiperidine-1-carboxylate]",21 nM
5,"N#CCC1(n2cc(C(N)=O)c(Nc3ccc(F)cc3)n2)CCN(C(=O)OC2CCOC2)CC1 (single isomer, unassigned) [Example 50-1, (3S or 3R)-tetrahydrofuran-3-yl 4-{4-carbamoyl-3-[(4-fluorophenyl)amino]-1H-pyrazol-1-yl}-4-(cyanomethyl)piperidine-1-carboxylate]",47 nM
6,"C[C@H]1CN(C(=O)OC(C)(C)C)CC[C@]1(CC#N)n1cc(C(N)=O)c(Nc2ccccc2)n1 (single isomer, unassigned) [Example 48-1, tert-Butyl (3S,4R or 3R,4S)-4-[4-carbamoyl-3-(phenylamino)-1H-pyrazol-1-yl]-4-(cyanomethyl)-3-methylpiperidine-1-carboxylate]",24 nM
7,"C[C@H]1CN(C(=O)OC(C)(C)C)CC[C@]1(CC#N)n1cc(C(N)=O)c(Nc2ccccc2)n1 (single isomer, unassigned) [Example 48-2, tert-Butyl (3S,4R or 3R,4S)-4-[4-carbamoyl-3-(phenylamino)-1H-pyrazol-1-yl]-4-(cyanomethyl)-3-methylpiperidine-1-carboxylate]",487 nM
8,"N#CCC1(n2cc(C(N)=O)c(Nc3ccccc3)n2)CCOCC1 [Example 6-5, 1-[4-(cyanomethyl)tetrahydro-2H-pyran-4-yl]-3-(phenylamino)-1H-pyrazole-4-carboxamide]",133 nM
9,"N#CCC1(n2cc(C(N)=O)c(Nc3ccc(F)cc3)n2)CCN(C(=O)OC2CCOC2)CC1 (single isomer, unassigned) [Example 50-2, (3S or 3R)-tetrahydrofuran-3-yl4-{4-carbamoyl-3-[(4-fluorophenyl)amino]-1H-pyrazol-1-yl}-4-(cyanomethyl)piperidine-1-carboxylate]",62 nM
10,"N#CCC1(n2cc(C(N)=O)c(Nc3ccc(F)cc3)n2)CCC(=O)CC1 [Example 40-1A, 1-(1-(Cyanomethyl)-4-oxocyclohexyl)-3-((4-fluorophenyl)amino)-1H-pyrazole-4-carboxamide]",39 nM
11,"N#CCC1(n2cc(C(N)=O)c(Nc3ccc(F)cc3)n2)CCN(C(=O)OC2CCOC2)CC1 (stereo not shown) [Example 30-46, tetrahydrofuran-3-yl 4-{4-carbamoyl-3-[(4-fluorophenyl)amino]-1H-pyrazol-1-yl}-4-(cyanomethyl)piperidine-1-carboxylate]",37 nM

# From patent publication US9328099B2, “Cyanomethylpyrazole carboxamides as janus kinase inhibitors” (Merck Sharp & Dohme Corp., priority 2011, dated 2016)
